From patent US8753604B2, “Methods and compositions for synaphically-targeted treatment for cancer” (Sanford-Burnham Medical Research Institute, priority 2008, dated 2014)
Bridges are numbered along the chain shown (N, C = ends). Where no end group is shown, it is not given here. The star is where a group is joined. FITC = O=C1OC2(c3ccc(O)cc3Oc3cc(O)ccc32)c2ccc(NC(=S)*)cc21

Columns and labels:
MDA-MB-435 cells = test: FACS analysis of FITC-peptide binding to siRNA-transfected MDA-MB-435 cells; type: cell-based, human; conditions: 10 μM FITC peptide, 1 h at 4° C.
Method: MDA-MB-435 cells were transiently transfected with gC1qR/p32-specific or control siRNAs. […] The amount of fluorescence in living cells was analyzed by FACS. Cells incubated in the absence of peptide served as FITC negative control. Compared to control siRNA transfected cells, down-regulation of gC1qR/p32 expression (in the presence of gC1qR/p32 siRNA) caused a shift in the peak of Lyp-1 fluorescence but not control peptide fluorescence.
Cultured cells were detached with cell enzyme-free dissociation buffer (Gibco/Invitrogen) and collected in PBS containing 1% BSA (PBSB). Single cells suspensions from tumors were obtained as indicated above. For FACS staining, 2.5×10^5 cells were resuspended in 100 μl of PBSB and incubated with polyclonal anti-full-length gC1qR/p32 or rabbit IgG (20 μg/ml) in PBSB for 30 min at 4° C. The cells were washed in PBSB and stained with goat anti rabbit Alexa 488 (2.5 μg/ml) for 30 min at 4° C. For FACS analysis of bound FITC-peptides, cultured cells were detached as above and incubated with 10 μM of FITC-peptides in 10% FCS/DMEM for 1 hour at 4° C. After washes with PBSB, the cells were resuspended in PBS containing 2 μg/ml of propidium iodide (PI, Molecular Probes/Invitrogen) to distinguish between live and dead cells, and 10,000 cells per sample were analyzed using a BD Biosciences FACSort.

tumors [1] = conditions: mouse, in vivo
Method: (§1) The peptides were allowed to circulate for 2 hrs and organs were collected and viewed under UV light (left panel) or white light (right panel). […] Fluorescence in each tissue was quantified with Image J software. Statistical analysis was performed with Student's t-test. […] The circulation time for the free peptides was 2 hrs, 15 min for the peptide-displaying phage, and 3 hrs for the peptide-coupled micelles. […] Representative fields from multiple sections of each of three tumors are shown.
(§2) Synthetic peptides labeled with fluorescein (Karmali et al. (2008)) (approximately 200 μg) were intravenously injected into tumor-bearing mice and allowed to circulate for 15 min to 2 hrs. Tissues were collected and observed under UV light (Illumatool Bright Light System LT-9900) or processed for immunofluorescence (Karmali et al. (2008)). To assess phage homing (Zhang et al., (2006)), 10^9 pfu of T7 phage were intravenously injected into tumor-bearing mice, and allowed to circulate for 15 min. The mice were perfused through the heart with PBS containing 1% BSA and tissues were harvested for immunofluorescence.

mitochondrial membranes = conditions: concentration of 10 μM; cited from earlier work
PPC1 cells = test: Phage internalization assay in PPC1 cells; type: cell-based, human
Description: Mice were maintained in accordance with institutional guidelines and the animal experiments were approved by the Animal Research Committees at University of California, Santa Barbara and San Francisco. transgenic tumor mice (Bardeesy and DePinho, (2002); Arbeit et al., Progressive squamous epithelial neoplasia in K14-human papillomavirus type 16 transgenic mice. J. Virol. 68, 4358-4368 (1994); Hanahan, Heritable formation of pancreatic β-cell tumors in transgenic mice expressing recombinant insulin/simian virus 40 oncogenes. Nature 315, 115-122 (1985)) and xenograft tumors generated by injecting BALB/c nude mice (Harlan Sprague Dawley, Indianapolis, Ind.) with 10^6 human cancer cells orthotopically, intracardiacly or into the brain and tibia were used. […] Phage homing studies in vivo and cell binding studies in vitro (Zhang et al., (2006)), immunofluorescence (Karmali et al. (2008)) and flow cytometry (Sugahara et al., Hyaluronan oligosaccharides induce CD44 cleavage and promote cell migration in CD44-expressing tumor cells. J. Biol. Chem. 278, 32259-32265 (2003)) were done as described. Whole body imaging was performed 3 hrs after injecting the Cy7-labelled micelles with the Odyssey Infrared Imaging System (LI-COR Biosciences, Lincoln, Nebr.). […] FAM-labeled peptides in tissues were quantified by measuring the fluorescence with Image J software. […]

tumors [2] = test: In vivo peptide and phage homing (iRGD); conditions: peptides 2 hrs, phage 15 min circulation
Method: as §1, §2

For “FITC-LyP-1: FITC conjugated LyP-1 peptide ({FITC}-CGNKRTRGC; disulfide 1-9 (inferred); not fully specified (C-terminus))”, the “FITC-peptide binding to cells after gC1qR/p32 siRNA versus control siRNA” value (MDA-MB-435 cells) was “reduction in the binding”.
In the case of `N=C(N)NCCC[C@@H]1NC(=O)[C@@H](N)CSSC[C@@H](C(=O)O)NC(=O)[C@H](CC(=O)O)NC(=O)[C@@H]2CCCN2C(=O)CNC(=O)[C@H](CCCCN)NC(=O)[C@H](CC(=O)O)NC(=O)CNC1=O` [iRGD], the “tumor homing over a control peptide” value (tumors [1]) is reported as 12 fold.
In the case of D(KLAKLAK)2, the mitochondrial swelling (mitochondrial membranes) is given as “marked mitochondrial swelling”.
In the case of “RGD-4C: RGD peptide (SEQ ID NO:41) with strong affinity for αv integrins (RGDCCCC; homing peptide)”, the “phage internalization within PPC1 cells” value (PPC1 cells) is reported as “nor did they internalize” and the “distribution within tumor (confocal microscopy)” value (tumors [2]) is reported as “accumulated only in and around tumor blood vessels”.
